In US20080070917A1, “METHODS FOR ADMINISTERING LEVOSIMENDAN” (priority 2005, published 2008):
Where two headings read alike, the source gives them in different places.

Columns and labels:
[1] = system: patients with New York Heart Association functional class II to III heart failure; assay: Double-blind, placebo-controlled study of a 24-hour levosimendan infusion in heart failure patients; format: in vivo, human
Protocol: A double-blind, placebo-controlled, parallel group, single center study in patients with New York Heart Association functional class II to III heart failure was conducted. Patients were randomised in 1:1 ratio to receive either levosimendan or placebo. Study drug administration was initiated with a loading dose of 12 μg/kg of levosimendan or placebo delivered over 10 minutes. This was followed by a continuous infusion of 0.1 μg/kg/min for 50 minutes. If the dose was well tolerated the infusion rate was increased to 0.2 μg/kg/min for a further 23 hours. After the study drug was started, the hemodynamic assessments were repeated at 30 minutes, at two and six hours. The non-invasive hemodynamic assessments were repeated at 24-hours. Follow-up visits took place at 2, 3, 5, 7, 9 and 14 days from the beginning of the study. On these visits echocardiographic measurements were performed and blood pressure and heart rate were measured.
An Acuson Sequoia ultrasound system with 2.5-3.75 MHz probes was used for the Doppler echocardiographic measurements. Blood flow velocity curves were recorded at a sweep speed of 100 mm/s. Left ventricular ejection fraction was assessed by two-dimensional apical two- and four-chamber views with use of modified Simpson rule. Mitral flow velocity was assessed by pulsed wave Doppler from the apical four-chamber view by placing a 3-mm sample volume between the tip of the mitral leaflets in diastole. The following measurements were made over five consecutive cycles: maximal early and maximal late diastolic velocity and their ratio, duration of the late diastolic velocity wave, deceleration time and deceleration rate of early diastolic velocity. Peak velocities were defined as the highest point of the spectrum.
Blood samples (4 ml) for natriuretic peptide (NT-proANP, NT-proBNP) measurements were taken into pre-cooled EDTA tubes. Samples were taken at baseline (0-sample) and on the first study day 30 min, 2 h, 6h and 24 h after the start of the infusion and in the mornings of days 2, 3, 5, 7, 9 and 14 after the start of the study drug infusion.

CHF patients = assay: PK-PD meta-analysis (NONMEM, Emax model) of eight studies in CHF patients; format: in vivo, human; details: for EC50: Homo sapiens, effective concentration (composite of levosimendan, OR-1855, OR-1896)
Protocol: Data from eight studies (Studies 300102, 300103, 300105, 3001022, 3001024, 3001040, 3001058 (Group 1 and 2) and 3001058 (Group 4)) (335 CHF patients) were combined to generate the PK-PD dataset. Dose regimens included infusions of various doses (0.25-70.6 mg) and infusion durations (5 min-7 days), with or without an initial loading dose. In addition to plasma concentration-time data the PD variables utilized in the PK-PD evaluation were PCWP, CI, HR, SBP, and DBP.
Population PK models were built using a non-linear mixed-effect population modelling approach with the NONMEM software. The sequence of modelling was such that levosimendan PK was modelled first. Then the levosimendan portion of the full PK model was fixed, and individual PK parameters were carried forward in order to simultaneously model the metabolites PK. In the PK model it was assumed that levosimendan is fully metabolized to OR-1855, which is further metabolized to OR-1896. A gut compartment with first-order input from the levosimendan compartment and first-order output to the OR 1855 compartment was incorporated to account for the considerable delay between levosimendan elimination and metabolite appearance. This delay represents transport of levosimendan from plasma to gut and further transit to colon, metabolism of levosimendan to OR-1855 in the colon, and the subsequent absorption of OR-1855 from the colon. Elimination of the metabolites and inter-conversion between the two metabolites were modelled as first-order processes (See, FIG. 1). A mixture model allowing different inter-conversion rates for slow and rapid acetylators was beneficial in describing the data.
Covariates (fixed effects) such as demographic characteristics and patient attributes, for e.g. ejection fraction (EF), New York Heart Association classification (NYHA), serum bilirubin, and creatinine clearance etc. were tested individually in a stepwise method. The intra-subject effects or residual error was modelled as additive, proportional (constant coefficient of variation) or combination of the two for the PK model. The inter-subject effects were modelled as exponential error model.
The full PK models for levosimendan and its metabolites were fixed for the PD modelling. For each individual, plasma concentrations were calculated using the post-hoc PK parameter estimates for that individual. A maximal drug effect (Emax) model described by the following general equation was used to describe the relation between the estimated concentrations of drug and metabolites, and effect. E=Emax*Ceff/(EC50+Ceff) • Where: Ceff is the apparent effective concentration in the hypothetical effect compartment that may be a composite of drug and metabolite concentrations; EC50 is the effective concentration required to achieve 50% of Emax.
The equilibration rate constant (ke0) controls the time delay between the time courses of levosimendan concentration in the central compartment (Cp) and levosimendan concentration in the effect compartment (Clevo), and is expressed as dClevo/dT=ke0·(Cp−Clevo).
The contributions of the drug and the metabolites to the PD effects were modeled using a competitive agonist model that assumed same efficacy (Emax), but different potencies (EC50) for different compounds. A potency factor (RP) accounted for differences in potency and protein binding relative to levosimendan. […] Ceff=Clevo+RP1·COR-1855+RP2·COR-1896
Where RP1 and RP2 are the potencies of OR-1855 and OR-1896 relative to levosimendan, respectively.
The drug response was modelled as the absolute change from baseline and as the fractional change from baseline. The non-drug response was modelled either as a time dependent function or as an instantaneous response based on the following equations.
Where SSS is the maximum non-drug-related response. The exponent “a” represents the rate of onset of the non-drug response over time. […]

Unbound plasma fraction = format: in vitro ADME
[2] = system: subjects hospitalized with acute decompensation of heart failure; assay: Phase 3, double-blind, placebo-controlled study in acute decompensation of heart failure (Example 5); format: in vivo, human
Protocol: This was a Phase 3, double-blind, placebo-controlled, parallel-group study in subjects hospitalized with a primary or secondary admitting diagnosis of acute decompensation of heart failure. The treatment period was up to 24 hours for each subject with at least 90 days follow-up after the start of the study drug infusion. All baseline medications (including use of beta-blockers and other medications) were recorded for each patient. The study evaluated hospitalized subjects (n=600) with a primary or secondary admitting diagnosis of worsening heart failure, with symptoms at rest despite treatment with IV diuretic therapy. […] Infusion rates for background therapy of continuous IV diuretics, inotropes and vasodilators had to have been unchanged for at least two hours prior to the baseline evaluation. Left ventricular ejection fraction (EF) was required to be less than or equal to 35% as assessed within the previous 12 months. Subjects were randomized to either levosimendan (n=299) or placebo (n=301) in addition to standard-of-care. Levosimendan treatment was initiated with a total loading dose of […] administered over 10 minutes (6 mg/kg for subjects on concomitant IV vasodilators or inotropes at the start of the study drug infusion) followed by a continuous infusion of […] for the following 50 minutes. If the dose was well tolerated, the infusion rate was increased to 0.2 mg/kg/min for a further 23 hours. If the higher dose was not well tolerated it was reduced to […] and then further to 0.05 mg/kg/min if required. On completion of 24 hours the infusion is turned off abruptly.
The primary objective of this study was to compare the efficacy between levosimendan and placebo treatments using the clinical composite endpoint (CCE) incorporating a subject reported PGA at 6 hours, 24 hours and Day 5, combined with clinical criteria for worsening heart failure through 5 days after the start of study drug infusion. In contrast to REVIVE I, the was CCE included a PGA at 6 hours as part of the primary endpoint and diuretics at any time during the 5 day assessment period were included as rescue therapy.
Episodes of worsening heart failure treated with a rescue therapy were collected during the initial hospitalization until Day 5 or discharge whichever was later. Safety parameters such as adverse events (AEs), HR, […] (BP), routine laboratory tests, and ECG were monitored frequently up to 31 days, with hospitalization and mortality extended to 90 days after start of study drug infusion. Survival was monitored for all randomized subjects from Day 90 until the last subject underwent the final scheduled visit.

For `C[C@@H]1CC(=O)NN=C1c1ccc(NN=C(C#N)C#N)cc1` [levosimendan, (−)-enantiomer of [[4-(1,4,5,6-tetrahydro-4-methyl-6-oxo-3-pyridazinyl)phenyl]hydrazono]propanedinitrile], which “Maintenance of beneficial hemodynamic and neurohormonal effects” value ([1]; after levosimendan administration) is on record?
The value was “up to two weeks”.

What about the “Time of lowest echocardiographically estimated PCWP” value ([1]; after starting the infusion) of the same compound?
Its value is 2 days.

What about the “Day of lowest plasma NT-proANP level” value ([1]; human, in vivo) of the same compound?
The value was 3 days.

What about the “Day of lowest plasma NT-proBNP level” value ([1]; human, in vivo) of the same compound?
The value was 2 days.

What about the “Duration of treatment effect on NT-proANP, linear model” value ([1]; human, in vivo) of the same compound?
The value was 16 days.

And the “Duration of treatment effect on NT-proBNP, linear model” value ([1]; human, in vivo)?
The value was 12 days.

And the “Time of highest CO value estimated by echocardiography” value ([1]; human, in vivo)?
The value was “at the end of the 24-hour infusion”.

What about the EC50 (CHF patients; read-out: Post-hoc Mean EC50, CI) of the same compound?
Its EC50 is 0.09 µg/mL.

And the EC50 (CHF patients; read-out: Post-hoc Mean EC50, DBP)?
The EC50 was 0.154 µg/mL.

And the EC50 (CHF patients; read-out: Post-hoc Mean EC50, HR)?
The EC50 was 0.198 µg/mL.

What about the EC50 (CHF patients; read-out: Post-hoc Mean EC50, PCWP) of the same compound?
The EC50 was 0.0511 µg/mL.

And the EC50 (CHF patients; read-out: Post-hoc Mean EC50, SBP)?
Its EC50 is 0.047 µg/mL.

And the “Post-hoc Mean Emax, CI” value (CHF patients; baseline mean 2.21)?
Its value is 1.15 L/m^2/min.

And the “Post-hoc Mean Emax, PCWP” value (CHF patients; baseline mean 20.8)?
Its value is −7.8 mmHg.

And the “Post-hoc Mean Emax, DBP” value (CHF patients; baseline mean 71)?
The value was −13.3 mmHg.

And the “Post-hoc Mean Emax, HR” value (CHF patients; baseline mean 76)?
The value was 18 Bpm.

And the “Post-hoc Mean Emax, SBP” value (CHF patients; baseline mean 118)?
The value was −7.1 mmHg.

And the Unbound plasma fraction (Unbound plasma fraction)?
Its Unbound plasma fraction is 0.025.

What about the “Proportion of patients reporting moderate to marked improvement in dyspnea” value ([2]; at 6 hours (91/299), placebo/SOC 25.2%) of the same compound?
The value was 30.4%.

And the “Improvement in self assessment (PGA) compared to placebo/SOC” value ([2]; beta-blocked patients, over the first 5 days, p=0.001)?
Its value is “significantly greater improvement”.

And the “Improvement in self assessment (dyspnea) compared to placebo/SOC” value ([2]; over the first 5 days, p=0.018)?
The value was “significantly greater improvement”.

What about the “Proportion of patients reporting moderate to marked improvement in PGA” value ([2]; overall population, at 6 hours (85/299), placebo/SOC 23.9%) of the same compound?
Its value is 28.4%.

What about the “Improvement in PGA compared to placebo/SOC” value ([2]; overall population, over 5 days, p=0.002) of the same compound?
Its value is “significantly greater improvement”.

What about the “Difference in PGA improvement compared to placebo/SOC” value ([2]; patients not receiving beta-blocker therapy (n=96)) of the same compound?
The value was “not statistically significant”.

What about the “Difference in dyspnea improvement between treatment groups” value ([2]; patients not receiving beta-blocker therapy, first 5 days) of the same compound?
Its value is “not statistically significant”.

And the “Proportion reporting moderate to marked improvements in dyspnea compared to placebo/SOC” value ([2]; patients receiving a beta-blocker at baseline, at 6 hours)?
Its value is “greater proportion”.

What about the “Proportion of patients reporting moderate to marked improvements in PGA” value ([2]; patients receiving a beta-blocker at baseline, at 6 hours, placebo/SOC 34%) of the same compound?
The value was 44%.

And the “Improvement in dyspnea compared to placebo/SOC” value ([2]; patients receiving beta-blockers, over the first 5 days, p=0.0016)?
The value was “significantly greater improvement”.

And the “Other secondary endpoints, except 90-day mortality” value ([2]; versus placebo)?
The value was “trended in favor of levosimendan but did not reach statistical significance”.
